Measured values: ChEMBL document CHEMBL4261637, “Discovery of a non-toxic [1,2,4]triazolo[1,5-a]pyrimidin-7-one (WS-10) that modulates ABCB1-mediated multidrug resistance (MDR)” (Bioorg Med Chem, 2018)
Activity calls are given as the source filed them. The calls are words filed in the database; no cut-off is given here.

Key:
[1] = system: HEK-293T; test: Potentiation of doxorubicin-induced cytotoxicity in human HEK293T/NC cells assessed as fold reduction in doxorubicin IC50 at 10 uM after 72 hrs by MTT assay relative to doxorubicin; format: functional
[2] = system: SW-620; test: Potentiation of cisplatin-induced cytotoxicity in human SW620 cells assessed as fold reduction in cisplatin IC50 at 10 uM after 72 hrs by MTT assay relative to cisplatin alone; format: functional
[3] = target: T1, ATP-dependent translocase ABCB1 (Homo sapiens, UniProt P08183); test: Inhibition of ABCB1 in human SW620/AD300 cells assessed as intracellular accumulation of paclitaxel at 10 to 20 uM after 72 hrs by UPLC analysis; format: cell-based
[4] = system: SW-620; test: Potentiation of cisplatin-induced cytotoxicity in human SW620 cells assessed as fold reduction in cisplatin IC50 at 20 uM after 72 hrs by MTT assay relative to cisplatin alone; format: functional
[5] = system: ECa-109 cell line; test: Cytotoxicity against human EC109 cells at 10 to 20 uM after 72 hrs by MTT assay; format: cell-based; conditions: eca-109, 72 h
[6] = system: HEK-293T; test: Potentiation of paclitaxel-induced cytotoxicity in human HEK293T/NC cells assessed as fold reduction in paclitaxel IC50 at 10 uM after 72 hrs by MTT assay relative to paclitaxel; format: functional
[7] = system: A549; test: Cytotoxicity against human A549 cells at 10 to 20 uM after 72 hrs by MTT assay; format: cell-based; conditions: a549, 72 h
[8] = system: SW-620; test: Potentiation of doxorubicin-induced cytotoxicity in human SW620 cells assessed as fold reduction in doxorubicin IC50 at 20 uM after 72 hrs by MTT assay relative to doxorubicin alone; format: functional
[9] = system: HEK-293T; test: Potentiation of cisplatin-induced cytotoxicity in human HEK293T/NC cells assessed as fold reduction in cisplatin IC50 at 10 uM after 72 hrs by MTT assay relative to cisplatin; format: functional
[10] = system: SW-620; test: Potentiation of doxorubicin-induced cytotoxicity in human SW620 cells assessed as fold reduction in doxorubicin IC50 at 10 uM after 72 hrs by MTT assay relative to doxorubicin alone; format: functional
[11] = system: HEK-293T; test: Potentiation of doxorubicin-induced cytotoxicity in human HEK293T/NC cells assessed as fold reduction in doxorubicin IC50 at 20 uM after 72 hrs by MTT assay relative to doxorubicin; format: functional
[12] = system: SW-620; test: Potentiation of paclitaxel-induced cytotoxicity in human SW620 cells assessed as fold reduction in paclitaxel IC50 at 10 uM after 72 hrs by MTT assay relative to paclitaxel alone; format: functional
[13] = system: SW-620; test: Potentiation of paclitaxel-induced cytotoxicity in human SW620 cells assessed as fold reduction in paclitaxel IC50 at 20 uM after 72 hrs by MTT assay relative to paclitaxel alone; format: functional
[14] = system: MGC-803; test: Cytotoxicity against human MGC803 cells at 10 to 20 uM after 72 hrs by MTT assay; format: cell-based; conditions: mgc-803, 72 h
[15] = system: TE-1; test: Cytotoxicity against human TE1 cells at 10 to 20 uM after 72 hrs by MTT assay; format: cell-based; conditions: te-1, 72 h
[16] = system: SW620/AD300; test: Effect on subcellular localization of ABCB1 in human SW620/AD300 cells at 10 to 20 uM after 72 hrs by Hoechst 33342 staining-based immunofluorescence assay; format: functional, cell-based
[17] = system: SW620/AD300; test: Effect on ABCB1 expression in human SW620/AD300 cells at 10 to 20 uM by Western blot analysis; format: functional, cell-based
[18] = system: SW620/AD300; test: Effect on ABCB1 expression in human SW620/AD300 cells at 20 uM up to 96 hrs by Western blot analysis; format: functional, cell-based
[19] = system: SGC-7901; test: Cytotoxicity against human SGC7901 cells at 10 to 20 uM after 72 hrs by MTT assay; format: cell-based; conditions: sgc-7901, 72 h
[20] = target: T1, ATP-dependent translocase ABCB1; test: Binding affinity to ABCB1 in human SW620/AD300 cells assessed as thermal stabilization incubated for 30 mins at 43 to 80 degC by CETSA; format: cell-based; conditions: 0.5 h
[21] = system: HEK-293T; test: Potentiation of paclitaxel-induced cytotoxicity in human HEK293T/NC cells assessed as fold reduction in paclitaxel IC50 at 20 uM after 72 hrs by MTT assay relative to paclitaxel; format: functional
[22] = system: SW-620; test: Potentiation of cisplatin-induced cytotoxicity in human SW620 cells assessed as fold reduction in cisplatin IC50 at 4 uM after 72 hrs by MTT assay relative to cisplatin alone; format: functional
[23] = system: HEK-293T; test: Potentiation of paclitaxel-induced cytotoxicity in human HEK293T/NC cells assessed as fold reduction in paclitaxel IC50 at 4 uM after 72 hrs by MTT assay relative to paclitaxel; format: functional
[24] = system: SW-620; test: Potentiation of paclitaxel-induced cytotoxicity in human SW620 cells assessed as fold reduction in paclitaxel IC50 at 4 uM after 72 hrs by MTT assay relative to paclitaxel alone; format: functional
[25] = system: HEK-293T; test: Potentiation of cisplatin-induced cytotoxicity in human HEK293T/NC cells assessed as fold reduction in cisplatin IC50 at 4 uM after 72 hrs by MTT assay relative to cisplatin; format: functional
[26] = system: HEK-293T; test: Potentiation of doxorubicin-induced cytotoxicity in human HEK293T/NC cells assessed as fold reduction in doxorubicin IC50 at 4 uM after 72 hrs by MTT assay relative to doxorubicin; format: functional
[27] = system: SW-620; test: Potentiation of doxorubicin-induced cytotoxicity in human SW620 cells assessed as fold reduction in doxorubicin IC50 at 4 uM after 72 hrs by MTT assay relative to doxorubicin alone; format: functional

T1 sequence (P08183 whole entry): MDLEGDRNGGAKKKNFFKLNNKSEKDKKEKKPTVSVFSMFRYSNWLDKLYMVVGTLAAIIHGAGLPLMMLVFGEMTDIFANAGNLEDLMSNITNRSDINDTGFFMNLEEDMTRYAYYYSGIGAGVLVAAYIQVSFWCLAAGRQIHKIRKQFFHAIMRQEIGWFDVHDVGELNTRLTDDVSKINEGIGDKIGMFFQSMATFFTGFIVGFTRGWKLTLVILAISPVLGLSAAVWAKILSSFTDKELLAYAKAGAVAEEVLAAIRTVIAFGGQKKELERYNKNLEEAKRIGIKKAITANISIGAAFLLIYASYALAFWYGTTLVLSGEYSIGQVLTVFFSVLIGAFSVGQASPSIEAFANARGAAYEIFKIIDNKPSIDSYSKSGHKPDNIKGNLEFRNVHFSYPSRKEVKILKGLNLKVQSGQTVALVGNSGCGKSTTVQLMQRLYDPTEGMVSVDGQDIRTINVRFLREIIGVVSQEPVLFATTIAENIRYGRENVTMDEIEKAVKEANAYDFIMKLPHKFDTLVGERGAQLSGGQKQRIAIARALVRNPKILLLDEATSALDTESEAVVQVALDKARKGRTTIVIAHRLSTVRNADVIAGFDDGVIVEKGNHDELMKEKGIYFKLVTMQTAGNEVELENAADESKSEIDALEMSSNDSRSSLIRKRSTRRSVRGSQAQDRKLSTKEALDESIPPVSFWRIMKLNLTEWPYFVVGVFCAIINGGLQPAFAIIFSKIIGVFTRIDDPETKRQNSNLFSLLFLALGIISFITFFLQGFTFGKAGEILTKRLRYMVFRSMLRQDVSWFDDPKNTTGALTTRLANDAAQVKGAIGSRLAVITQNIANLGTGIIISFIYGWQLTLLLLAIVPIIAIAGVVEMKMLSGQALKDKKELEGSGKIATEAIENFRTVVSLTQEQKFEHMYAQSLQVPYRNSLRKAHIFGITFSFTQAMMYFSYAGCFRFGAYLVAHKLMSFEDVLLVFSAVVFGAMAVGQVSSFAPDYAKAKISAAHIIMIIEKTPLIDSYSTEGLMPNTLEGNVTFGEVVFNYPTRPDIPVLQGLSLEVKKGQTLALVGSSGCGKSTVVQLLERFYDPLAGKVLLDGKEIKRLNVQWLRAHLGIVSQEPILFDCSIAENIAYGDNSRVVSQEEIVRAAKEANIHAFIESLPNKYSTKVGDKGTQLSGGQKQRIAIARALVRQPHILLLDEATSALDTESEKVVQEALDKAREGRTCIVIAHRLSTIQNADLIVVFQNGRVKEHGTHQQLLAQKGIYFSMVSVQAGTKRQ

For `O=c1cc(-c2ccccc2)[nH]c2nc(SCc3nc4ccccc4[nH]3)nn12`, the “Ratio IC50” value [1] was 1.14, the “Ratio IC50” value [2] was 1.07 and the “inhibition (INH)” value [3] was “Active”. For the same molecule, the “Ratio IC50” value [4] was 0.97, the Activity [5] was “Non-Toxic” and the “Ratio IC50” value [6] was 0.87. The Activity [7] was “Non-Toxic”, the “Ratio IC50” value [8] was 1.14 and the “Ratio IC50” value [9] was 1.04. For the same molecule, the “Ratio IC50” value [10] was 1.17, the “Ratio IC50” value [11] was 1.08 and the “Ratio IC50” value [12] was 1.2. The “Ratio IC50” value [13] was 0.81, the Activity [14] was “Non-Toxic” and the Activity [15] was “Non-Toxic”. The Activity [16] was “inactive”, the Activity [17] was “inactive” and the Activity [18] was “inactive”. For the same molecule, the Activity [19] was “Non-Toxic”, the Activity [20] was “Active” and the “Ratio IC50” value [21] was 0.83.

`COc1ccc(CCN(C)CCCC(C#N)(c2ccc(OC)c(OC)c2)C(C)C)cc1OC` (configuration not stated) was tested, and the “Ratio IC50” value [22] was 1.1, the “Ratio IC50” value [23] was 0.84 and the “Ratio IC50” value [24] was 1.29. The “Ratio IC50” value [25] was 0.89, the “Ratio IC50” value [26] was 1.07 and the “Ratio IC50” value [27] was 1.18.
